Residues, ends and D or L forms follow the SMILES beside them. *: point of attachment. X1 = O=C(O)CCC(NC(=O)NC(CCCCNC(=O)CCCCCCC(=O)*)C(=O)O)C(=O)O; Acetyl(2-STrt) = O=C(CSC(c1ccccc1)(c1ccccc1)c1ccccc1)*

The experiment deals with PSMA (Homo sapiens, UniProt Q04609). Description: NAALADase assay. The class given is biochemical.
Sequence of PSMA (Q04609 whole entry): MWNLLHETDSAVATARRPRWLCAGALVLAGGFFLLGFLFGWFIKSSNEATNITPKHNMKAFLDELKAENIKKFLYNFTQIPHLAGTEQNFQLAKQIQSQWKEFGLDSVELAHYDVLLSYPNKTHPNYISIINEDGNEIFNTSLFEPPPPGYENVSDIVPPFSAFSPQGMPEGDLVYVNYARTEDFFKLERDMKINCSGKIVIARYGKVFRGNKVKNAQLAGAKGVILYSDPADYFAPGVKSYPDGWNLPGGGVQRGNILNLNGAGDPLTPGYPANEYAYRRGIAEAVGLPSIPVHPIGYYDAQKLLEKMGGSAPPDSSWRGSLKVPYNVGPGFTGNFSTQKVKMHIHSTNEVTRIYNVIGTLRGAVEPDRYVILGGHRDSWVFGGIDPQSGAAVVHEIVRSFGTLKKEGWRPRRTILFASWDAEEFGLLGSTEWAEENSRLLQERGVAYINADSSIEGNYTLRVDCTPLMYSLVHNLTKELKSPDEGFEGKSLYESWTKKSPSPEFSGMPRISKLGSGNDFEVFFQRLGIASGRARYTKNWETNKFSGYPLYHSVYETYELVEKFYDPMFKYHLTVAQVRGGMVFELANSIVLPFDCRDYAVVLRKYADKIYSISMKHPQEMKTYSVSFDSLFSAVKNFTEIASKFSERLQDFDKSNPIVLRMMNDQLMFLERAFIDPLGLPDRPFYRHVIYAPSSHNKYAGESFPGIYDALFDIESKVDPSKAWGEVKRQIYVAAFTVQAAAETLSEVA
Turning to `NC(Cc1cn(CCCC[C@H](NC(=O)CCCCCCC(=O)NCCCC[C@H](NC(=O)N[C@@H](CCC(=O)O)C(=O)O)C(=O)O)C(=O)O)nn1)C(=O)O` (stereo partly drawn) [Compound L8, (3S,7S,22S)-26-(4-(2-amino-2-carboxyethyl)-1H-1,2,3-triazol-1-yl)-5,13,20-trioxo-4,6,12,21-tetraazahexacosane-1,3,7,22-tetracarboxylic acid], the Ki – broadly, a dissociation constant, usually derived from enzyme kinetics or from competition with a known ligand – stood at 1.12 nM. This lies in the single-digit nanomolar range.
Regarding `O=C(O)CCC(NC(=O)NC(CCCCNC(=O)CCCCCCC(=O)NC(CCCCN(CC(=O)O)Cc1ccccn1)C(=O)O)C(=O)O)C(=O)O` (centres unmarked) [Compound L9, 2-[3-(1-Carboxy-5-(7-[1-carboxy-5-(carboxymethyl-pyridin-2-ylmethyl-amino)-pentylcarbamoyl]-heptanoylamino)-pentyl)-ureido]-pentanedioic acid], affinity was put at a Ki of 12.6 nM.
The result for `O=C(O)CCC(NC(=O)NC(CCCCNC(=O)CCCCCCC(=O)NC(CCCCN(Cc1ncc[nH]1)Cc1ncc[nH]1)C(=O)O)C(=O)O)C(=O)O` (centres unmarked) [Compound L10, 2-{3-[5-(7-(5-[Bis-(1H-imidazol-2-ylmethyl)-amino]-1-carboxy-pentylcarbamoyl)-heptanoylamino)-1-carboxy-pentyl]-ureido}-pentanedioic acid] reads 16.3 nM; that for `O=C(O)CCC(NC(=O)NC(CCCCNC(=O)CCCCCCC(=O)NCCCCC(NC(=O)CNC(=O)CNC(=O)CSC(c1ccccc1)(c1ccccc1)c1ccccc1)C(=O)O)C(=O)O)C(=O)O` (centres unmarked) [Compound L11], 0.03 nM.
The result for `O=C(O)CCC(NC(=O)NC(CCCCNC(=O)CCCCCCC(=O)NCCCCC(NC(=O)C(Cc1ccccc1)NC(=O)CNC(=O)CNC(=O)CSC(c1ccccc1)(c1ccccc1)c1ccccc1)C(=O)O)C(=O)O)C(=O)O` (centres unmarked) [Compound L12, 12-benzyl-4,7,10,13,21,28,36-heptaoxo-1,1,1-triphenyl-2-thia-5,8,11,14,20,29,35,37-octaazatetracontane-15,34,38,40-tetracarboxylic acid] ({Acetyl(2-STrt)}-GGFK(X1)-OH; configuration not given here) reads 0.13 nM.
To `O=C(O)CCC(NC(=O)NC(CCCCNC(=O)CCCCCCC(=O)NCCCCC(NC(=O)C(Cc1ccccc1)NC(=O)C(Cc1ccccc1)NC(=O)CNC(=O)CNC(=O)CSC(c1ccccc1)(c1ccccc1)c1ccccc1)C(=O)O)C(=O)O)C(=O)O` (centres unmarked) [Compound L13, 12,15-dibenzyl-4,7,10,13,16,24,31,39-octaoxo-1,1,1-triphenyl-2-thia-5,8,11,14,17,23,32,38,40-nonaazatritetracontane-18,37,41,43-tetracarboxylic acid] ({Acetyl(2-STrt)}-GGFFK(X1)-OH; configuration not given here) belongs 1.91 nM; to `O=C(O)CC[C@H](NC(=O)N[C@@H](CCCCNC(=O)CCCCCCC(=O)NCCCC[C@@H](NC(=O)C(CNC(=O)CSC(c1ccccc1)(c1ccccc1)c1ccccc1)NC(=O)CSC(c1ccccc1)(c1ccccc1)c1ccccc1)C(=O)O)C(=O)O)C(=O)O` (stereo partly drawn) [Compound L16, (10R, 29S ,33S)-4,8,16,23,31-pentaoxo-1,1,1-triphenyl-7-(2-(tritylthio)acetamido)-2-thia-5,9,15,24,30,32-hexaazapentatriacontane-10,29,33,35-tetracarboxylic acid], 0.048 nM.
`NNc1ccc(C(=O)NCCCCC(NC(=O)CCCCCCC(=O)NCCCCC(NC(=O)NC(CCC(=O)O)C(=O)O)C(=O)O)C(=O)O)cn1` (centres unmarked) [Compound L19, 2-(3-[1-Carboxy-5-(7-(1-carboxy-5-[(6-hydrazino-pyridine-3-carbonyl)-amino]-pentylcarbamoyl)-heptanoylamino)-pentyl]-ureido)-pentanedioic acid] displayed a Ki of 1.74 nM.

The values above are taken from article PMC3773988 (Journal of medicinal chemistry, 2013).
